Data set [1] can be described thus: Serum ELISA of osteoclast and osteoblast markers in DBA/1 mice. The note with it: 300 μg daily, 8 days. For orientation: ELISA stands for enzyme-linked immunosorbent assay.
Source text: DBA/1 mice—Male 8- to 12-wk-old DBA/1 mice were purchased from Janvier and housed following institutional guidelines. All animal procedures were approved by the institutional animal care and ethics committee. […] The human IL-6 and IL-8 cytoset were purchased from BioSource International, Inc. For the detection of TRAP5b in DBA/1 mice serum we used the Mouse TRAP Assay, purchased from Immunodiagnostic systems limited. The osteocalcin EIA kit was purchased from Biomedical Technologies, Inc. All assays were performed according to the manufacturer's instructions.
In the next data set the test system is MM1.S cell lines. Nature of the data set: Annexin V/PI assay in MM1.S cells. The following applies: 10^-5 M, FIG. 13. The format is cell-based, human. The protocol: 1. […] Procedure: • Human multiple myeloma cell lines L363, U266, MM1.S and MMR.1 are cultured in RPMI 1640 with Glutamax-I, supplemented with 10% FCS, 100 U/ml penicillin and 100 μg/ml streptomycin. Cells are counted and resuspended in fresh medium at a concentration of 1×10^6/ml. Next, 1 ml of cell suspension is transferred to 5 ml culture tubes in the presence of test compounds (DEX, CpdA, CpdA analogues: 10^−7 to 10^−4 M) or vehicle (EtOH) and incubated for 24 or 48 hours at 37° C. • Double-staining of the cells with PI and annexin V is performed according to the instructions of the Annexin V kit (BD Biosciences). • Double-stained cells are analyzed by flow cytometry. […] Graphs are represented as the ratio of early apoptotic cells versus late apoptotic cells (a) or as total % of living cells (b).

The subject of another data set is MCF7 breast cancer cells. Briefly: Human Cancer Pathway Finder GEarray hybridization, MCF7 cells. The note with it: 10^−5 M. The format is cell-based. The protocol: mRNA of MCF7 breast cancer cells left untreated or treated with CpdA was analyzed for variation in gene expression by means of RNase protection analysis and nylon arrayfilter hybridization (SuperArray filters i.e. cancer pathway finder and stress and toxicity pathway array). From these experiments it can be derived that the synephrine analogues show a unique gene expression profile with respect to target genes involved in apoptosis, cell cycle, metastasis, angiogenesis, stress responses, and the like. At the same time, the synephrine analogue-induced gene expression prophile is distinct from the gene expression response observed with classical glucorticoids.
For the total RNA extraction, 10^5 cell were homogenized in 1 ml of TRIzol Reagent (GIBCO BRL), incubated 5 minutes at room temperature; then added 200 μl chloroform, vortexed 15 seconds. Mix was incubated on ice for 5 minutes. Phase separation was done by centrifugation at 12000 rpm for 15 minutes at 4° C. […]
Membranes were washed twice with 5 ml of pre-warmed wash solution 2×SSC, 1% SDS for 10 minutes at 68° C. with agitation at 30-40 rpm/minute. […] Visualization and quantitation of radioactive bands was carried out by a Phosphorlmager and scanned using a bioimaging analyzer (Personal Molecular Imager® FX Bio-Rad). Densitometry analysis of autoradiograms was performed using Quantity One (Bio-Rad). […]

Another data set concerns Saos-2. Briefly: Q-PCR gene expression in osteosarcoma cell-line Saos-2. Format: cell-based, human. The note with it: 10 μM. The protocol:
CpdA was synthesized as described previously. […] They were sacrificed and livers were isolated. […] Gene expression of HPRT was used for normalization. […] Gene expression of HPRT was used for normalization. […] Gene expression of HPRT was used for normalization. Statistical significance was determined by one way anova. […] Gene expression of HPRT was used for normalization. […] Gene expression of HPRT was used for normalization. Statistical significance was determined by one way anova. […] Statistical significance was determined with a Kruskal-Wallis test.

Structures are written as SMILES.

Turning to `CNCC(Cl)c1ccc(OC(C)=O)cc1.Cl` (centres unmarked) [CpdA, 2-(4-acetoxyphenyl)-2-chloro-N-methyl-ethylammonium chloride], the “Amount of active osteoclasts (TRAP5b) in serum” value in data set [1] (FIG. 21A) was “does not alter the amount of active osteoclasts (TRAP5b)”. Besides, in data set [1] (FIG. 21B), the “Osteocalcin levels in mouse serum” value was “does not significantly alter the osteocalcin levels in mouse serum”. Besides, the “Apoptosis (Annexin V/PI staining)” value in the data set with MM1.S cell lines is given as “able to mediate apoptosis in the MM1.S cell lines at 10-5 M, to a much higher extent than Dex”. Moreover, the “Expression of cancer target genes TP53, TNFRSF12, MAP2K1, RAF, ITGA6, NCAM, PDGF, MMP9, MTA1, TIMP1” value in the data set with MCF7 breast cancer cells is given as “represses”. Besides, the RANKL/OPG ratio result in the data set on Saos-2 (24 hours) is reported as “does not alter the RANKL/OPG ratio”. The “Expression of osteoclast differentiation markers M-CSF and RANKL” value with Saos-2 (24 hours, FIG. 15, RANKL solvent versus CpdA p>0.05) is “does not stimulate the expression”. The “Expression of OPG” value in the data set on Saos-2 (24 hours, FIG. 15, solvent versus CpdA p>0.05) is reported as “does not down-regulate the expression of OPG”. For the same molecule, the “Expression of pro-inflammatory mediators (anti-inflammatory effect)” value in the data set on Saos-2 (TNF 2000 U/ml 6 hours, FIG. 16) was “anti-inflammatory effect”.

The values are drawn from patent US8039501B2, “Synephrine derivatives useful as anti-inflammatory agents” (Universiteit Gent, priority 2005, dated 2011).
